Source: US20250230193A1, “CYCLIC COMPOUND HAVING SELECTIVE KRAS INHIBITORY EFFECT ON HRAS AND NRAS” (CHUGAI SEIYAKU KABUSHIKI KAISHA, priority 2022, published 2025)
Where a SMILES comes first, the peptide text is derived from it. Bridges are numbered along the chain shown (N, C = ends). [ ]: non-standard residue; d: D form. The star is where a group is joined. hPhe(3-Cl-4-CF3) = N[C@@H](CCc1ccc(C(F)(F)F)c(Cl)c1)C(=O)O; NPrPhe(4-CF3) = CCCN[C@@H](Cc1ccc(C(F)(F)F)cc1)C(=O)O; hPhe(3,4-Cl2) = N[C@@H](CCc1ccc(Cl)c(Cl)c1)C(=O)O; NMeGly(cPent) = CN[C@H](C(=O)O)C1CCCC1; Hyp = O=C(O)[C@@H]1C[C@@H](O)CN1; NMeD = CN[C@@H](CC(=O)O)C(=O)O; NMeL = CN[C@@H](CC(C)C)C(=O)O; Ac6c = NC1(C(=O)O)CCCCC1; Morpholide = C1CN(*)CCO1; NMeA = CN[C@@H](C)C(=O)O; Ac5c = NC1(C(=O)O)CCCC1; Aze = O=C(O)[C@@H]1CCN1; Ac3c = NC1(C(=O)O)CC1; Aib = CC(C)(N)C(=O)O; Sar = CNCC(=O)O

Tests used:
[1] = biological target: GDP-bound HRAS wild-type protein (Homo sapiens, UniProt P01112); test: Binding to HRAS by surface plasmon resonance (SPR), Single Cycle Kinetics; settings: KD ratio HRAS/KRAS, SPR
[2] = biological target: GDP-bound NRAS wild-type protein (Homo sapiens, UniProt P01111); test: Binding to NRAS by surface plasmon resonance (SPR), Single Cycle Kinetics; settings: KD ratio NRAS/KRAS, SPR
GDP-bound NRAS wild-type protein, sequence (P01111 whole entry): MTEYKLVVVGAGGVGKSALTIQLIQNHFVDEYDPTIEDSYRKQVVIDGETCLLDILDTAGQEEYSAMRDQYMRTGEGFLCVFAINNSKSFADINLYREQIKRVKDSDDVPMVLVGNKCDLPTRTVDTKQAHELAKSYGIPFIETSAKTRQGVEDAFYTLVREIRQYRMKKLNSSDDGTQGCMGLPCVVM

GDP-bound HRAS wild-type protein, sequence (P01112 whole entry): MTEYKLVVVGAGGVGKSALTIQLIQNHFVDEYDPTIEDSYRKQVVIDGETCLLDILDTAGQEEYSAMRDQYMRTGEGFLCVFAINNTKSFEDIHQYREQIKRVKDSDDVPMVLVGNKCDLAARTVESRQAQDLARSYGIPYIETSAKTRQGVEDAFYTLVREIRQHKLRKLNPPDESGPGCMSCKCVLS

CCCN1C(=O)[C@@H]2CCN2C(=O)[C@H](C)N(C)C(=O)[C@H]([C@@H](C)CC)NC(=O)[C@H](CC(C)C)N(C)C(=O)C[C@@H](C(=O)N2CCOCC2)N(C)C(=O)[C@H](C2CCCC2)N(C)C(=O)C(C)(C)NC(=O)[C@@H]2CCCN2C(=O)[C@H](CCc2ccc(C(F)(F)F)c(Cl)c2)NC(=O)CN(C)C(=O)[C@@H]1Cc1ccc(C(F)(F)F)cc1 [PP0225] ([NMeL]I[NMeA][Aze][NPrPhe(4-CF3)][Sar][hPhe(3-Cl-4-CF3)]P[Aib][NMeGly(cPent)][NMeD]-Morpholide; lactam N-11)
HRAS/KRAS (ratio of KD for GDP-bound HRAS wild-type to KD for KRAS) [1]: C (A compound having a KD ratio of 0.1 or more and less than 3 is denoted as C) | NRAS/KRAS (ratio of KD for GDP-bound NRAS wild-type to KD for KRAS) [2]: C (A compound having a KD ratio of 0.1 or more and less than 3 is denoted as C)

CCCN1C(=O)[C@@H]2CCN2C(=O)[C@H](C)N(C)C(=O)[C@H]([C@@H](C)CC)NC(=O)[C@H](CC(C)C)N(C)C(=O)C[C@@H](C(=O)N2CCOCC2)N(C)C(=O)[C@H](C2CCCC2)N(C)C(=O)C2(CCCCC2)NC(=O)[C@@H]2CCCN2C(=O)[C@H](CCc2ccc(C(F)(F)F)c(Cl)c2)NC(=O)CN(C)C(=O)[C@@H]1Cc1ccc(C(F)(F)F)cc1 [PP0226] ([NMeL]I[NMeA][Aze][NPrPhe(4-CF3)][Sar][hPhe(3-Cl-4-CF3)]P[Ac6c][NMeGly(cPent)][NMeD]-Morpholide; lactam N-11)
HRAS/KRAS (ratio of KD for GDP-bound HRAS wild-type to KD for KRAS) [1]: B (a compound having 3 or more and less than 10 is denoted as B) | NRAS/KRAS (ratio of KD for GDP-bound NRAS wild-type to KD for KRAS) [2]: C (A compound having a KD ratio of 0.1 or more and less than 3 is denoted as C)

CCCN1C(=O)[C@@H]2CCN2C(=O)[C@H](C)N(C)C(=O)[C@H]([C@@H](C)CC)NC(=O)[C@H](CC(C)C)N(C)C(=O)C[C@@H](C(=O)N2CCOCC2)N(C)C(=O)[C@H](C2CCCC2)N(C)C(=O)C2(CCCC2)NC(=O)[C@@H]2CCCN2C(=O)[C@H](CCc2ccc(Cl)c(Cl)c2)NC(=O)CN(C)C(=O)[C@@H]1Cc1ccc(C(F)(F)F)cc1 [PP0227] ([NMeL]I[NMeA][Aze][NPrPhe(4-CF3)][Sar][hPhe(3,4-Cl2)]P[Ac5c][NMeGly(cPent)][NMeD]-Morpholide; lactam N-11)
HRAS/KRAS (ratio of KD for GDP-bound HRAS wild-type to KD for KRAS) [1]: B (a compound having 3 or more and less than 10 is denoted as B) | NRAS/KRAS (ratio of KD for GDP-bound NRAS wild-type to KD for KRAS) [2]: C (A compound having a KD ratio of 0.1 or more and less than 3 is denoted as C)

CCCN1C(=O)[C@@H]2CCN2C(=O)[C@H](C)N(C)C(=O)[C@H]([C@@H](C)CC)NC(=O)[C@H](CC(C)C)N(C)C(=O)C[C@@H](C(=O)N2CCOCC2)N(C)C(=O)[C@H](C2CCCC2)N(C)C(=O)C2(CCCC2)NC(=O)[C@@H]2C[C@@H](OCC)CN2C(=O)[C@H](CCc2ccc(C(F)(F)F)c(Cl)c2)NC(=O)CN(C)C(=O)[C@@H]1Cc1ccc(C(F)(F)F)cc1 [PP0228] ([NMeL]I[NMeA][Aze][NPrPhe(4-CF3)][Sar][hPhe(3-Cl-4-CF3)][Hyp](Et)[Ac5c][NMeGly(cPent)][NMeD]-Morpholide; lactam N-11)
HRAS/KRAS (ratio of KD for GDP-bound HRAS wild-type to KD for KRAS) [1]: B (a compound having 3 or more and less than 10 is denoted as B) | NRAS/KRAS (ratio of KD for GDP-bound NRAS wild-type to KD for KRAS) [2]: C (A compound having a KD ratio of 0.1 or more and less than 3 is denoted as C)

CCCN1C(=O)CN(C)C(=O)CN(C)C(=O)[C@H]([C@@H](C)CC)NC(=O)[C@H](CC(C)C)N(C)C(=O)C[C@@H](C(=O)N2CCOCC2)N(C)C(=O)[C@H](C2CCCC2)N(C)C(=O)C2(CC2)NC(=O)[C@@H]2CCCN2C(=O)[C@H](CCc2ccc(C(F)(F)F)c(Cl)c2)NC(=O)CN(C)C(=O)[C@@H]1Cc1ccc(C(F)(F)F)cc1 [PP0229] ([NMeL]I[Sar][Sar][NPrPhe(4-CF3)][Sar][hPhe(3-Cl-4-CF3)]P[Ac3c][NMeGly(cPent)][NMeD]-Morpholide; lactam N-11)
HRAS/KRAS (ratio of KD for GDP-bound HRAS wild-type to KD for KRAS) [1]: B (a compound having 3 or more and less than 10 is denoted as B) | NRAS/KRAS (ratio of KD for GDP-bound NRAS wild-type to KD for KRAS) [2]: B (a compound having 3 or more and less than 10 is denoted as B)

CCCN1C(=O)CN(C)C(=O)CN(C)C(=O)[C@H]([C@@H](C)CC)NC(=O)[C@H](CC(C)C)N(C)C(=O)C[C@@H](C(=O)N2CCOCC2)N(C)C(=O)[C@H](C2CCCC2)N(C)C(=O)C(C)(C)NC(=O)[C@@H]2CCCN2C(=O)[C@H](CCc2ccc(C(F)(F)F)c(Cl)c2)NC(=O)CN(C)C(=O)[C@@H]1Cc1ccc(C(F)(F)F)cc1 [PP0230] ([NMeL]I[Sar][Sar][NPrPhe(4-CF3)][Sar][hPhe(3-Cl-4-CF3)]P[Aib][NMeGly(cPent)][NMeD]-Morpholide; lactam N-11)
HRAS/KRAS (ratio of KD for GDP-bound HRAS wild-type to KD for KRAS) [1]: C (A compound having a KD ratio of 0.1 or more and less than 3 is denoted as C) | NRAS/KRAS (ratio of KD for GDP-bound NRAS wild-type to KD for KRAS) [2]: B (a compound having 3 or more and less than 10 is denoted as B)
